The results in this text go back to patent publication US12479839B2, “Crystalline form of ATR inhibitor and use thereof” (Wuxi Biocity Biopharmaceutics Co., Ltd., priority 2019, dated 2025).

A short description of data set [1]: In vivo pharmacokinetic study in female Balb/c Nude mice. The arrangement: species or system mouse. On the procedure: Experimental procedure: The purpose of this study is to determine the pharmacokinetic parameters of the compound and calculate its gavage bioavailability in female Balb/c Nude mice.
Six female Balb/c Nude mice were used in this project, three mice were injected intravenously, with the dosage of 1 mg/kg, where plasma samples at 0 h (before administration) and at 0.0833, 0.25, 0.5, 1, 2, 4, 6, 8 and 24 h after administration were collected, and the other three mice were administered intragastrically with the dose of 10 mg/kg or 25 mg/kg, where plasma samples at 0 h (before administration) and at 0.5, 1, 2, 3, 4, 6, 8, 24 h after administration were collected. LC-MS/MS analysis was performed on the collected samples and data were collected. The collected analysis data were calculated with Phoenix WinNonlin 6.2.1 software for relevant pharmacokinetic parameters.
Note: C0 (nM) is the concentration of the drug in the body at 0 min; Cl (mL/min/kg) is the clearance rate of the drug in the body; Vdss (L/kg) is the volume of distribution of the drug in the body; T1/2 (h) is the half-life; AUC0-t (nM·h) is the amount of drug exposure in the body; Cmax (nM) is the highest concentration of the drug in the body; F is the bioavailability.

A short description of data set [2]: Solid stability test of Crystal Form A under high temperature and high humidity. It counts as physicochemical. Conditions: 40° C./75% humidity. On the procedure: Two samples of Crystal Form A were weighed in parallel, each about 100 mg, placed on the bottom of a glass sample bottle and spread into a thin layer. The samples were sealed with aluminum foil paper, and some small holes were pierced in the aluminum foil paper to ensure that the sample can fully contact with the ambient air. The samples were placed at a constant temperature and humidity box under the condition of 40° C./75% humidity. The samples under the above conditions were sampled and tested on day 30, and the test results were compared with the initial test result on day 0.

Data set [3] can be described thus: Solid physical stability tests of Crystal Form A under different temperature, humidity and light conditions. Type of data set: physicochemical. Particulars: Day 10, XRPD. How it is done:
Four samples of Crystal Form A were weighed in parallel, each about 100 mg, placed on the bottom of a glass sample bottle and spread into a thin layer. The samples were sealed with aluminum foil paper, and some small holes were pierced in the aluminum foil paper to ensure that the sample can fully contact with the ambient air. Four prepared samples were placed in 25° C./92.5% relative humidity, 60° C., 40° C./75% and light conditions, respectively, and the physical stability of the samples on the 10th day was investigated. At the same time, a sample of about 100 mg of Crystal Form A was weighed separately, placed on the bottom of the glass sample bottle, sealed with a screw cap, and stored at −20° C. for use as control. On the 10th day, all the samples were taken out, returned to room temperature, and the appearance changes of the samples were observed. XRPD was used to detect the sample crystal forms. By comparing the accelerated samples with the control sample, the solid physical stability of Crystal Form A of the compound of formula (I) was determined.

The nature of data set [4]: Solid stability tests of Crystal Form B under high temperature, high humidity and light conditions. Type of data set: physicochemical. From the text: The samples were sealed with aluminum foil paper, and some small holes were pierced in the aluminum foil paper to ensure that the sample can fully contact with the ambient air. The samples were placed in a constant temperature and humidity or light box under different humidity conditions. […] The test results were compared with the initial test results on day 0.

In data set [1] (10 mg/kg intragastric), `Cc1cnn(C)c1-c1cc(N2CCOC[C@H]2C)nc(-c2cc(CO)cc3[nH]ccc23)n1` [Compound of formula (1)] showed an F of 129.0%. The AUC in data set [1] (mouse, plasma, 1 mg/kg IV, read-out: AUC04) worked out at 1.09 µM·h.
With `Cc1cnn(C)c1-c1cc(N2CCOC[C@H]2C)nc(-c2cc(CO)cc3[nH]ccc23)n1` [Crystal Form A], the Appearance result in data set [2] (day 0) and in data set [2] (day 30) was “White” throughout. For the same molecule, the Content turned out to be 99.61% in data set [2] (day 0) and 99.59% in data set [2] (day 30). Moreover, the “Crystal Form” value in data set [2] (day 0), in data set [2] (day 30), in data set [3] (25° C./92.5% relative humidity (open)), in data set [3] (40° C./75% relative humidity (open)), in data set [3] (60° C. (open)) and in data set [3] (light) was “Form A” throughout. Further, the “Crystal Form” value in data set [3] (−20° C. sealed (control)) is “Form A”. For the same molecule, the Total impurity in data set [2] (day 0) was found to be 0.39%; in data set [2] (day 30), 0.45%.
On to `Cc1cnn(C)c1-c1cc(N2CCOC[C@H]2C)nc(-c2cc(CO)cc3[nH]ccc23)n1` [Crystal Form B], for which the Content in data set [4] (25° C./65% RH, 3 month) was determined as 98.4%; in data set [4] (25° C./65% RH, 6 month), 99.8%; in data set [4] (25° C./65% RH, day 0), 99.0%; in data set [4] (25° C./92.5% RH, day 0), 99.0%; in data set [4] (25° C./92.5% RH, day 5), 98.9%; in data set [4] (25° C./92.5% RH, day 10), 100.1%. Moreover, the Content turned out to be 99.7% in data set [4] (25° C./92.5% RH, day 30); 100.6% in data set [4] (40° C./75% RH, 1 month); 100.4% in data set [4] (40° C./75% RH, 2 month); 98.8% in data set [4] (40° C./75% RH, 3 month); 99.8% in data set [4] (40° C./75% RH, 6 month); 99.0% in data set [4] (40° C./75% RH, day 0). Besides, the Content in data set [4] (60° C., day 0) turned out to be 99.0%; in data set [4] (60° C., day 5), 101.5%; in data set [4] (60° C., day 10), 101.6%; in data set [4] (60° C., day 30), 99.4%; in data set [4] (light, day 0) it was 99.0%; in data set [4] (light, day 5), 101.0%. Further, the Content in data set [4] (light, day 10) is recorded as 100.7%. In addition, the “Crystal Form” value in data set [4] (25° C./65% RH, 3 month) is “Crystal Form B”; in data set [4] (25° C./65% RH, 6 month), “Crystal Form B”; in data set [4] (25° C./65% RH, day 0), “Crystal Form B”; in data set [4] (25° C./92.5% RH, day 0), “Crystal Form B”; in data set [4] (25° C./92.5% RH, day 5), “Crystal Form B”; in data set [4] (25° C./92.5% RH, day 10) it was “Crystal Form B”. In addition, the “Crystal Form” value in data set [4] (25° C./92.5% RH, day 30) is reported as “Crystal Form B”; in data set [4] (40° C./75% RH, 1 month), “Crystal Form B”; in data set [4] (40° C./75% RH, 2 month), “Crystal Form B”; in data set [4] (40° C./75% RH, 3 month), “Crystal Form B”; in data set [4] (40° C./75% RH, 6 month), “Crystal Form B”; in data set [4] (40° C./75% RH, day 0), “Crystal Form B”. For the same molecule, the “Crystal Form” value in data set [4] (60° C., day 0) is recorded as “Crystal Form B”; in data set [4] (60° C., day 5), “Crystal Form B”; in data set [4] (60° C., day 10) it was “Crystal Form B”; in data set [4] (60° C., day 30), “Crystal Form B”; in data set [4] (light, day 0), “Crystal Form B”; in data set [4] (light, day 5) it was “Crystal Form B”. Besides, in data set [4] (light, day 10), the “Crystal Form” value is “Crystal Form B”. Besides, the Total impurity in data set [4] (25° C./65% RH, 3 month) came out at 0.45%; in data set [4] (25° C./65% RH, 6 month), 0.43%; in data set [4] (25° C./65% RH, day 0), 0.42%; in data set [4] (25° C./92.5% RH, day 0), 0.42%; in data set [4] (25° C./92.5% RH, day 5) it was 0.44%; in data set [4] (25° C./92.5% RH, day 10) it was 0.41%. Besides, the Total impurity in data set [4] (25° C./92.5% RH, day 30) worked out at 0.41%; in data set [4] (40° C./75% RH, 1 month), 0.45%; in data set [4] (40° C./75% RH, 2 month), 0.42%; in data set [4] (40° C./75% RH, 3 month), 0.44%; in data set [4] (40° C./75% RH, 6 month), 0.43%; in data set [4] (40° C./75% RH, day 0) it was 0.42%. Further, the Total impurity in data set [4] (60° C., day 0) is 0.42%; in data set [4] (60° C., day 5) it was 0.43%; in data set [4] (60° C., day 10), 0.39%; in data set [4] (60° C., day 30), 0.41%; in data set [4] (light, day 0), 0.42%; in data set [4] (light, day 5) it was 0.44%. The same molecule showed a Total impurity in data set [4] (light, day 10) of 0.42%.
